Assay: refractive index (Na D-line) (dimensionless); xn = mol fraction of the nth substance listed
Details: 101 kPa, Liquid, Standard Abbe refractometry

CCCCOC(C)=O [butyl ethanoate] + CCc1ccccc1
refractive index
Details | 293.15 K | 298.15 K | 303.15 K | 308.15 K | 313.15 K
x1 = 0.0544 | 1.48984 | 1.48716 | 1.48442 | 1.48172 | 1.47899
x1 = 0.1008 | 1.48485 | 1.48219 | 1.47946 | 1.47673 | 1.47401
x1 = 0.1488 | 1.4796 | 1.47693 | 1.47418 | 1.47152 | 1.46884
x1 = 0.2024 | 1.47382 | 1.47116 | 1.46843 | 1.4658 | 1.4631
x1 = 0.254 | 1.46832 | 1.46568 | 1.46302 | 1.46037 | 1.45768
x1 = 0.2929 | 1.46417 | 1.46155 | 1.4589 | 1.45623 | 1.45354
x1 = 0.3526 | 1.45799 | 1.45536 | 1.45263 | 1.45 | 1.44729
x1 = 0.3989 | 1.45314 | 1.45054 | 1.44782 | 1.44526 | 1.44253
x1 = 0.4448 | 1.44842 | 1.44582 | 1.44315 | 1.44053 | 1.43785
x1 = 0.5021 | 1.44254 | 1.43999 | 1.43733 | 1.43472 | 1.43207
x1 = 0.5505 | 1.43764 | 1.43508 | 1.43242 | 1.42983 | 1.4272
x1 = 0.6041 | 1.43221 | 1.42967 | 1.42703 | 1.42449 | 1.42191
x1 = 0.6456 | 1.42806 | 1.42552 | 1.42292 | 1.42036 | 1.41779
x1 = 0.7003 | 1.42266 | 1.42015 | 1.41759 | 1.41507 | 1.41252
x1 = 0.7555 | 1.41729 | 1.41481 | 1.41224 | 1.40974 | 1.4072
x1 = 0.8016 | 1.41282 | 1.41035 | 1.40784 | 1.40537 | 1.40283
x1 = 0.8511 | 1.40813 | 1.40566 | 1.4032 | 1.40068 | 1.39815
x1 = 0.9009 | 1.40339 | 1.40097 | 1.39849 | 1.39597 | 1.39349
x1 = 0.9505 | 1.39875 | 1.39633 | 1.39386 | 1.39139 | 1.38895
